pKi: −log10 of the molar value.

Chain of Sodium-dependent dopamine transporter (P23977 whole entry): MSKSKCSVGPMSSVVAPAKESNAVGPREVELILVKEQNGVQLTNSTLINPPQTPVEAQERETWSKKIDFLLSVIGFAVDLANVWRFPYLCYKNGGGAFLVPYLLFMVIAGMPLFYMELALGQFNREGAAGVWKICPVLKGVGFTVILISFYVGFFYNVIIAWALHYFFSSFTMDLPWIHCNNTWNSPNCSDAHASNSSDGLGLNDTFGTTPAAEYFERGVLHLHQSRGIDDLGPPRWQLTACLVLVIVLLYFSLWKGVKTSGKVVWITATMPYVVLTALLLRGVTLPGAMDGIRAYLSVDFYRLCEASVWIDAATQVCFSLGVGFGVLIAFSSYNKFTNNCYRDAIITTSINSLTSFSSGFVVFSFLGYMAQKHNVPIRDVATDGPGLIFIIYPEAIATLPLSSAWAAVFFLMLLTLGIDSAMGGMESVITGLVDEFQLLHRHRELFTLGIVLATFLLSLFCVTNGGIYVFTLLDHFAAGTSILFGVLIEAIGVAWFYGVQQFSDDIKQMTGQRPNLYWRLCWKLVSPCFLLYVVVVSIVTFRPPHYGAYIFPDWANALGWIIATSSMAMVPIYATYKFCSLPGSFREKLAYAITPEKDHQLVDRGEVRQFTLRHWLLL

This assay addresses Sodium-dependent dopamine transporter (Rattus norvegicus, UniProt P23977). Kind of assay: Displacement of [3H]WIN-35428 from dopamine transporter of rat caudate putamen tissue. It counts as tissue-based.
Usually pKi stands for −log10 of the Ki, conventionally taken in molar units. As for `c1ccc(CC2CC3CCC(C2)N3CCOC(c2ccccc2)c2ccccc2)cc1` (centres undefined), the negative-log Ki (pKi) was 7.01.
Consider `Clc1ccc(C(OCCN2C3CCC2CC(Cc2ccccc2)C3)c2ccc(Cl)cc2)cc1` (centres undefined), for which the pKi was 6.46.
`Cc1ccc(C(OCCN2C3CCC2CC(Cc2ccccc2)C3)c2ccc(C)cc2)cc1` (centres undefined) showed a negative logarithm of the Ki (pKi) of 6.66.
In the case of `Clc1ccc(C(OCCN2C3CCC2CC(Cc2ccccc2)C3)c2ccccc2)cc1` (centres undefined) it was 6.70.
In turn, `Fc1ccc(C(OCCN2CCC(CCCc3ccccc3)CC2)c2ccc(F)cc2)cc1` showed a pKi of 6.23.
As for `c1ccc(CN2C3CCC2CC(CCOC(c2ccccc2)c2ccccc2)C3)cc1` (centres undefined), the negative-log Ki (pKi) is 7.00.
`Fc1ccc(C(OCCC2CCN(CCCc3ccccc3)CC2)c2ccc(F)cc2)cc1` gave a negative logarithm of the Ki (pKi) of 7.60.
For the compound `Fc1ccc(C(OCCN2C3CCC2CC(Cc2ccccc2)C3)c2ccc(F)cc2)cc1` (centres undefined), the pKi is 6.84.
Turning to `COc1ccc(C(OCCN2C3CCC2CC(Cc2ccccc2)C3)c2ccc(OC)cc2)cc1` (centres undefined), the negative-log Ki (pKi) is 6.87.

These data come from ChEMBL document CHEMBL1134895, “Synthesis and dopamine transporter binding affinities of 3alpha-benzyl-8-(diarylmethoxyethyl)-8-azabicyclo[3.2.1]octanes” (Bioorg Med Chem Lett, 2002).
